This passage reports EC50 results from patent US20230295115A1, “SUBSTITUTED ISOQUINOLINYLMETHYL AMIDES, ANALOGUES THEREOF, AND METHODS USING SAME” (priority 2020, published 2023).

SMILES strings stand for the structures. Like-named read-outs stand apart in the source and are kept apart here.

The test system of the assay is HBV rcDNA. The assay can be described thus: HepDE19 assay with bDNA quantitation of HBV rcDNA. The assay is classed as cell-based, hepatitis B virus (HBV). In a few lines:
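HepDE19 cells were switched to tetracycline-free medium and exposed to compound (0.5% DMSO final) for 7 days at 37° C. rcDNA was then quantified by bDNA with an HBV-specific probe set. In parallel, viability was read as ATP content (CellTiter-Glo) after 4 days on replicate plates.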

The mark [1] stands for this setting: Hepatitis B virus, HepDE19, 168 h, HepDE19 cells, 7 day incubation, rcDNA measured by Quantigene 2.0 bDNA assay, top concentration 25 μM, read-out: DE-19bDNA EC50.
Where [2] appears, read: Hepatitis B virus, HepDE19, 168 h, read-out: DE-19bDNA EC50 (μM), HepDE19 cells, 7 day incubation, rcDNA measured by Quantigene 2.0 bDNA assay, top concentration 25 μM.
The mark [3] stands for this setting: HepDE19 cells, 7 day incubation, rcDNA measured by Quantigene 2.0 bDNA assay, top concentration 25 μM, read-out: DE-19bDNA EC50.

Take `C[C@H](c1c[nH]c(=O)c2ccccc12)N(C)C(=O)c1cc2cc(F)ccn2c1` [Compound 153, (R)-7-Fluoro-N-methyl-N-(1-(1-oxo-1,2-dihydroisoquinolin-4-yl)ethyl)indolizine-2-carboxamide]: the EC50 under setting [1] worked out at 0.35 µM.
Still for that read-out and setting: under `C[C@H](c1c[nH]c(=O)c2ccccc12)N(C)C(=O)c1cc2c(Cl)cccn2c1` [Compound 154, (R)-8-Chloro-N-methyl-N-(1-(1-oxo-1,2-dihydroisoquinolin-4-yl)ethyl)indolizine-2-carboxamide] stands 0.14 µM; under `C[C@H](c1c[nH]c(=O)c2ccccc12)N(C)C(=O)c1cc2ccccc2[nH]1` [Compound 155, (R)-N-Methyl-N-(1-(1-oxo-1,2-dihydroisoquinolin-4-yl)ethyl)-1H-indole-2-carboxamide], 0.17 µM.
The same measure, in the same setting: under `C[C@H](c1c[nH]c(=O)c2ccccc12)N(C)C(=O)c1cc2c(F)cccc2[nH]1` [Compound 156, (R)-4-Fluoro-N-methyl-N-(1-(1-oxo-1,2-dihydroisoquinolin-4-yl)ethyl)-1H-indole-2-carboxamide] stands 0.12 µM.
With `C[C@H](c1c[nH]c(=O)c2ccccc12)N(C)C(=O)c1cc2cc(F)ccc2[nH]1` [Compound 157, (R)-5-Fluoro-N-methyl-N-(1-(1-oxo-1,2-dihydroisoquinolin-4-yl)ethyl)-1H-indole-2-carboxamide], the EC50 under setting [2] is 0.15 µM.
`C[C@H](c1c[nH]c(=O)c2ccccc12)N(C)C(=O)c1cc2c(F)cc(F)cc2[nH]1` [Compound 158, (R)-4,6-Difluoro-N-methyl-N-(1-(1-oxo-1,2-dihydroisoquinolin-4-yl)ethyl)-1H-indole-2-carboxamide]: the EC50 under setting [1] is 0.13 µM.
Same read-out and setting: next, `C[C@H](c1c[nH]c(=O)c2ccccc12)N(C)C(=O)c1cc2cc(F)c(F)cc2[nH]1` [Compound 159, (R)-5,6-Difluoro-N-methyl-N-(1-(1-oxo-1,2-dihydroisoquinolin-4-yl)ethyl)-1H-indole-2-carboxamide]: 0.1 µM; `C[C@H](c1c[nH]c(=O)c2ccccc12)N(C)C(=O)[C@@H]1Cc2ccccc2N1` [Compound 160, (S)-N-Methyl-N-((R)-1-(1-oxo-1,2-dihydroisoquinolin-4-yl)ethyl)indoline-2-carboxamide]: 0.39 µM.
With `CC(c1cn(C)c(=O)c2cc(F)c(F)cc12)N(C)C(=O)[C@@H]1Cc2ccccc2N1` (stereo partly drawn) [Compound 183, (2S)-N-(1-(6,7-difluoro-2-methyl-1-oxo-1,2-dihydroisoquinolin-4-yl)ethyl)-N-methylindoline-2-carboxamide], the EC50 under setting [3] worked out at 0.07 µM.
On the same count and under the same terms, under `CC(c1cn(C)c(=O)c2cc(F)c(F)cc12)N(C)C(=O)[C@@H]1Cc2ccccc2N1` (stereo partly drawn) [Compound 184, (2S)-N-(1-(6,7-difluoro-2-methyl-1-oxo-1,2-dihydroisoquinolin-4-yl)ethyl)-N-methylindoline-2-carboxamide] stands 4.2 µM.
Take `C[C@H](c1c[nH]c(=O)c2cc(F)c(F)cc12)N(C)C(=O)c1ccc2cccn2c1` [Compound 185, (R)-N-(1-(6,7-Difluoro-1-oxo-1,2-dihydroisoquinolin-4-yl)ethyl)-N-methylindolizine-6-carboxamide]: the EC50 under setting [2] came out at 0.04 µM.
On the same count and under the same terms, under `C[C@H](c1c[nH]c(=O)c2cc(F)c(F)cc12)N(C)C(=O)c1cc2sc(Cl)cc2[nH]1` [Compound 186, (R)-2-Chloro-N-(1-(6,7-difluoro-1-oxo-1,2-dihydroisoquinolin-4-yl)ethyl)-N-methyl-4H-thieno[3,2-b]pyrrole-5-carboxamide] stands 0.03 µM; under `C[C@H](c1c[nH]c(=O)c2cc(F)c(F)cc12)N(C)C(=O)c1ccn2cccc2c1` [Compound 187, (R)-N-(1-(6,7-Difluoro-1-oxo-1,2-dihydroisoquinolin-4-yl)ethyl)-N-methylindolizine-7-carboxamide], 0.18 µM.
